# Laboratory results taken from BindingDB's records for doi:10.7270/Q2TX3CTT (Broad Institute, 2010).
# Structures can show the parent of a compound that is named as a salt.
# Molecular target: Glycogen synthase kinase-3 beta (Homo sapiens, UniProt P49841)
# Assay: GSK3beta kinase inhibitor potency, dose response, biochemical, luminescence, cell-free homogeneous, retest (AID 434954)
# Chain of Glycogen synthase kinase-3 beta (P49841 whole entry): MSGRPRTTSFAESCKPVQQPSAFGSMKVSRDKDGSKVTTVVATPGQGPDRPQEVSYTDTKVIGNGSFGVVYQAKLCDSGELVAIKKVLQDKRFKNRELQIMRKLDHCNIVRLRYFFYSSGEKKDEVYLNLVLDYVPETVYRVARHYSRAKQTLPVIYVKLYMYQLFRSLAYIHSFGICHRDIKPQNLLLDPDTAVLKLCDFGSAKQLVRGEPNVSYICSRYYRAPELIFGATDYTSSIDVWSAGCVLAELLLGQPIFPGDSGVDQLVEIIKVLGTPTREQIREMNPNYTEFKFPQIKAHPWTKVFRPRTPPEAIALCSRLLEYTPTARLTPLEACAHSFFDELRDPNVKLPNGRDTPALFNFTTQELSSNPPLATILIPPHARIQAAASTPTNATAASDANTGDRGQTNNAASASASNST
row,Compound,EC50
1,NS(=O)(=O)c1cccc(NC(=O)COC(=O)/C(=C/c2cccs2)c2cccs2)c1 [SMR000242820],> 300 µM
2,"CCN1CCN(CCCNC(=O)c2ccc3c(c2)NC(=O)/C(=C\c2cccc(C)c2)S3)CC1 [(2E)-N-[3-(4-ethyl-1-piperazinyl)propyl]-2-[(3-methylphenyl)methylidene]-3-oxo-4H-1,4-benzothiazine-6-carboxamide]",16.1 µM
3,CN=C(C)C(C(=O)OC)C(=O)c1ccc(Cl)cc1Cl (configuration not stated) [SMR000461254],> 300 µM
4,"CC1Cc2cc(-c3csc(NC(=O)Cc4ccccc4)n3)ccc2N1S(C)(=O)=O (configuration not stated) [N-[4-(1-Methanesulfonyl-2-methyl-2,3-dihydro-1H-indol-5-yl)-thiazol-2-yl]-2-phenyl-acetamide]",> 300 µM
5,COc1ccccc1CNC(=O)OCc1nccnc1C(=O)Nc1ccc(Br)cn1 [[3-[(5-bromopyridin-2-yl)carbamoyl]pyrazin-2-yl]methyl N-[(2-methoxyphenyl)methyl]carbamate],> 300 µM
6,"NCCCNc1nc(N)c([N+](=O)[O-])c(NC2CCCCC2)n1 [N2-(3-aminopropyl)-N4-cyclohexyl-5-nitropyrimidine-2,4,6-triamine]",3.06 µM
7,O=C(OCCCOC(=O)c1ccccc1O)c1ccccc1O [2-hydroxybenzoic acid 3-[(2-hydroxyphenyl)-oxomethoxy]propyl ester],> 300 µM
8,"COc1cc2c(O)c3c(c(-c4ccc5c(c4)OCO5)c2cc1OC)C(=O)OC3 [9-(1,3-benzodioxol-5-yl)-4-hydroxy-6,7-dimethoxy-3H-benzo[f][2]benzofuran-1-one]",4.42 µM
9,CCOC(=O)C1CCN(CC(O)COC(CC)c2ccccc2)CC1 (configuration not stated) [ethyl 1-[2-oxidanyl-3-(1-phenylpropoxy)propyl]piperidine-4-carboxylate;hydrochloride],> 300 µM
10,Cc1[nH][nH]c(=O)c1N=Nc1ccccc1C#N [2-[2-(3-methyl-5-oxopyrazol-4-yl)hydrazinyl]benzonitrile],15.9 µM
11,"CCOC(=O)CC(=O)CSc1ccc2nnc(-c3ccccc3)n2n1 [ethyl 3-oxo-4-[(3-phenyl[1,2,4]triazolo[4,3-b]pyridazin-6-yl)thio]butanoate]",> 300 µM
12,Fc1ccc(CSc2nnc(-c3ccccn3)o2)cc1,> 300 µM
13,O=c1cc(-c2ccccc2)c2c(O)cc(O)cc2o1,7.82 µM
14,CCc1ccc(C2NC(=S)N=C3CC(C)(C)CC(=O)C32)cc1 (configuration not stated) [MLS000720309],> 300 µM
15,CCn1c(/C=C/N(C)c2ccccc2)[n+](CC)c2cc(Cl)ccc21 [SMR000173749],> 300 µM
16,O=c1cc(-c2ccccc2)c2ccc(O)cc2o1 [7-Hydroxy-4-phenyl-chromen-2-one],24.6 µM
17,O=C(O)c1ccccc1NCc1ccncc1 [SMR000031483],> 300 µM
18,"CC(=O)Nc1ccc(S(=O)(=O)NCc2ccc(C)n2C)cc1 [N-[4-[(1,5-dimethylpyrrol-2-yl)methylsulfamoyl]phenyl]ethanamide]",> 300 µM
19,CN1CCN(CCC2Oc3cc([N+](=O)[O-])ccc3NC2=O)CC1 (configuration not stated) [SMR000336558],> 300 µM
20,"O=c1cc(-c2ccc(O)c(O)c2)oc2cc(O)cc(O)c12 [2-(3,4-dihydroxyphenyl)-5,7-dihydroxy-4H-chromen-4-one]",3.81 µM
21,"CCCCCCN1C(=O)NC(=O)C(=CNCCCn2ccnc2)C1=O [(5E)-1-hexyl-5-[[3-(1-imidazolyl)propylamino]methylidene]-1,3-diazinane-2,4,6-trione]",14.3 µM
22,"CCCCCOc1ccc(C=NNC(=O)c2nnn(-c3nonc3N)c2CN2CCCCCC2)cc1 [1-(4-azanyl-1,2,5-oxadiazol-3-yl)-5-(azepan-1-ylmethyl)-N-[(4-pentoxyphenyl)methylideneamino]-1,2,3-triazole-4-carboxamide]",9.79 µM
23,O=NCc1ccc(SCc2ccccc2)c([N+](=O)[O-])c1 [SMR000169144],> 300 µM

row,Compound,EC50
1,COc1ccc(CN=Nc2ccc([N+](=O)[O-])cc2)cc1O [MLS001198430],> 300 µM
2,Fc1ccc(CSc2nnc(-c3ccco3)o2)cc1,> 300 µM
3,CC(C)=CCc1cc([C@@H]2CC(=O)c3ccc(O)c(CC=C(C)C)c3O2)ccc1O [MLS000697605],58.4 µM
4,O=C1NC(c2cccnc2)Nc2sc3c(c21)CCCC3 (configuration not stated) [SMR000114421],> 300 µM
5,COc1ccc(CN(CC(=O)NCc2ccco2)C(=O)CCC(=O)Nc2ccccn2)cc1 [N'-[2-(2-furanylmethylamino)-2-oxoethyl]-N'-[(4-methoxyphenyl)methyl]-N-(2-pyridinyl)butanediamide],> 300 µM
6,CN1CCc2c(sc3c2c(=O)n(-c2ccccc2)c2n[nH]c(=S)n32)C1 [MLS000558136],21.7 µM
7,Clc1nccc(NCc2ccccc2)n1 [N-benzyl-N-(2-chloropyrimidin-4-yl)amine],> 300 µM
8,"Nc1nonc1-n1nnc(C(=O)NN=Cc2cccc(F)c2)c1CN1CCCCCC1 [1-(4-amino-1,2,5-oxadiazol-3-yl)-5-(1-azepanylmethyl)-N-[(3-fluorophenyl)methylideneamino]-4-triazolecarboxamide]",2.56 µM
9,Cc1ccc(S(=O)(=O)N/C(=N/C(C)C(=O)O)c2ccccc2)cc1 (configuration not stated) [MLS000108658],> 300 µM
10,Cc1ccc(N2CSC3=C(C#N)C(c4cccs4)CC(=O)N3C2)cc1 (configuration not stated) [MLS000522486],> 300 µM
11,"COc1cccc(C2c3c([nH]n(-c4ccccc4)c3=O)N=C3CCCC(=O)C32)c1 (configuration not stated) [3-hydroxy-4-(3-methoxyphenyl)-2-phenyl-2,4,6,7,8,9-hexahydro-5H-pyrazolo[3,4-b]quinolin-5-one]",> 300 µM
12,Cc1ccc(S(=O)(=O)NNC(=O)c2cccc(O)c2)cc1 [3-hydroxy-N'-(4-methylphenyl)sulfonylbenzohydrazide],> 300 µM
13,"O=c1c(O)c(-c2ccc(O)c(O)c2)oc2cc(O)cc(O)c12 [2-(3,4-dihydroxyphenyl)-3,5,7-trihydroxy-chromone;hydrate]",10.1 µM
14,CSc1nnnn1-c1c(C)cccc1C [MLS000861118],> 300 µM
15,CCOc1ccc(OCC)c(NC(=O)CSc2nnc(C3CC3)n2CC)c1 [MLS001223718],> 300 µM
16,"CCOc1ccc(C(=O)NCC(=O)OCc2c(C)noc2C)cc1 [(3,5-dimethyl-1,2-oxazol-4-yl)methyl 2-[(4-ethoxybenzoyl)amino]acetate]",> 300 µM
17,O=C(COc1ccccc1[N+](=O)[O-])NN=C/C=C/c1ccco1 [N-[[(E)-3-(furan-2-yl)prop-2-enylidene]amino]-2-(2-nitrophenoxy)acetamide],> 300 µM
18,Cc1cccc(CSc2ccc3nnc(-c4cccs4)n3n2)c1 [SMR000236998],> 300 µM
19,N#CC(C#N)c1nc2ccccc2nc1-[n+]1cccc([N-]C(=O)c2ccccc2)c1,> 300 µM
20,"Nc1nc(Nc2cccc(F)c2)nc(N2CCOCC2)c1[N+](=O)[O-] [2-N-(3-fluorophenyl)-6-morpholin-4-yl-5-nitropyrimidine-2,4-diamine]",> 300 µM
21,"COc1ccccc1N(CC(=O)N1CCc2ccccc2C1)S(C)(=O)=O [N-[2-(3,4-dihydro-1H-isoquinolin-2-yl)-2-oxoethyl]-N-(2-methoxyphenyl)methanesulfonamide]",> 300 µM
22,CCc1ccc(CN=Nc2ncnc3nc[nH]c23)cc1 [MLS000419199],26.6 µM
23,Cc1cc2oc(=O)cc(Cn3ccnc3)c2cc1O [6-hydroxy-4-(imidazol-1-ylmethyl)-7-methylchromen-2-one],> 300 µM

row,Compound,EC50
1,CN(C)c1nc(N)c([N+](=O)[O-])c(NCC2CCCO2)n1 (configuration not stated) [SMR000436172],> 300 µM
2,CSc1nc(NCc2ccco2)c2c3c(sc2n1)CN(C)CC3 [MLS000082597],30.2 µM
3,COc1ccc(CNC(=O)CN(Cc2ccccc2)C(=O)CCC(=O)Nc2ccccn2)cc1,24.2 µM
4,"Nc1nc(Nc2ccccc2)nc(NCc2ccco2)c1[N+](=O)[O-] [4-N-(furan-2-ylmethyl)-5-nitro-2-N-phenylpyrimidine-2,4,6-triamine]",4.89 µM
5,CC1(C)CC(=O)C=C(Nc2ccccn2)C1,> 300 µM
6,Cc1ccc2sc(N3CCN(CCNC(=O)c4ccco4)CC3)nc2c1C [SMR000811862],> 300 µM
7,"CCCCC(=O)Nc1ccc(C(=O)NNC(=O)CCCOc2ccc(Cl)cc2Cl)cc1 [N-[4-[[[4-(2,4-dichlorophenoxy)-1-oxobutyl]hydrazo]-oxomethyl]phenyl]pentanamide]",> 300 µM
8,CC(=O)Nc1ccc(C(=O)OCCCOC(=O)c2ccc(NC(C)=O)cc2)cc1,> 300 µM
9,"CCC(Sc1ccc2nnc(-c3ccc(F)cc3)n2n1)C(=O)O (configuration not stated) [2-[[3-(4-fluorophenyl)-[1,2,4]triazolo[4,3-b]pyridazin-6-yl]thio]butanoic acid]",29.5 µM
10,CCN1CCN(Cc2c(O)ccc3c2O/C(=C\C=C\c2ccccc2)C3=O)CC1 [SMR000221319],> 300 µM
11,Cc1cc(NC(=O)CSc2nc(-c3cccnc3)ccc2C#N)no1 [MLS000036936],> 300 µM
12,"C[C@H]1CCCC(=O)CCCC=Cc2cc(O)cc(O)c2C(=O)O1 [(11S)-11-methyl-15,17-bis(oxidanyl)-12-oxabicyclo[12.4.0]octadeca-1(18),2,14,16-tetraene-7,13-dione]",5.45 µM
13,Cc1c(C(=O)O)cccc1-n1c(C)cc(CN=Nc2ccc([N+](=O)[O-])cn2)c1C,21.3 µM
14,COCCn1c(SCC(=O)Nc2ccc(S(=O)(=O)N(C)C)cc2)nc2ccccc21 [MLS000567111],> 300 µM
15,Cc1ccc(N2CC(C(=O)NCCCn3ccnc3)CC2=O)cc1 (configuration not stated) [MLS000069041],> 300 µM
16,CCN1CCN(c2nc(Nc3cc(OC)ccc3OC)nc(Nc3cc(OC)ccc3OC)n2)CC1 [SMR000439674],> 300 µM
17,NC(=O)COC(=O)c1ccc(-c2ccc(O)cc2)cc1,> 300 µM
18,"COc1ccc(OC)c(C(=O)c2coc3ccc(O)c(CN(C)C)c23)c1 [(2,5-dimethoxyphenyl)-[4-[(dimethylamino)methyl]-5-oxidanyl-1-benzofuran-3-yl]methanone;hydrochloride]",> 300 µM
19,"CCn1nc(NC(=O)CC(C)C)c2cc3ccc(C)cc3nc21 [N-(1-ethyl-7-methylpyrazolo[3,4-b]quinolin-3-yl)-3-methylbutanamide]",> 300 µM
20,O=[N+]([O-])c1cc(-c2nc(-c3ccncc3)no2)ccc1Cl [MLS000331762],> 300 µM
21,"Clc1ccc(CSc2nnc(-c3ccncc3)o2)c(Cl)c1 [2-[(2,4-dichlorobenzyl)thio]-5-(4-pyridyl)-1,3,4-oxadiazole]",6.31 µM
